Results on six compounds are retold here after patent US10149835B2, “Isoxazole derivatives as FXR agonists and methods of use thereof” (Enanta Pharmaceuticals, Inc., priority 2016, dated 2018).

What is called EC50 is the concentration at which the effect is half-maximal.

Structures are written as SMILES.

The target in one test is human FXR (NR1H4) (Homo sapiens (Human), UniProt Q96RI1). As to the kind of experiment: Human FXR (NR1H4) Assay (Gal4 promoter driven luciferase reporter, Indigo Bioscience kit). Particulars: CHO reporter cells expressing human NR1H4; 22 hours incubation; potency ranges. In kind it is cell-based. The protocol: To a solution of compound (1) (211 mg, 0.37 mmol) in toluene (3 ml) was added dropwise triethylamine (0.10 ml, 0.74 mmol) and diphenyl phosphorazidate (0.087 ml, 0.40 mmol). The mixture was stirred at 23° C. for 1 h, at 85° C. for 3.5 h, and cooled to 23° C. A solution of N,N-dimethylsulfamide (68 mg, 0.55 mmol) in THF (0.5 mL) and DBU (83 μl, 0.55 mmol) was added. The mixture was stirred at 23° C. for 16 h, quenched with 1 M HCl, and extracted with EtOAc (2×). The combined organic layers were washed with brine and concentrated in vacuo. The residue was purified by chromatography on silica gel column eluting with hexane/acetone (100/0 to 70/30, 10 min) to provide Example 7. Assays Human FXR (NR1H4) Assay
Chain of human FXR (NR1H4) (Q96RI1 whole entry, the tested form may be a part): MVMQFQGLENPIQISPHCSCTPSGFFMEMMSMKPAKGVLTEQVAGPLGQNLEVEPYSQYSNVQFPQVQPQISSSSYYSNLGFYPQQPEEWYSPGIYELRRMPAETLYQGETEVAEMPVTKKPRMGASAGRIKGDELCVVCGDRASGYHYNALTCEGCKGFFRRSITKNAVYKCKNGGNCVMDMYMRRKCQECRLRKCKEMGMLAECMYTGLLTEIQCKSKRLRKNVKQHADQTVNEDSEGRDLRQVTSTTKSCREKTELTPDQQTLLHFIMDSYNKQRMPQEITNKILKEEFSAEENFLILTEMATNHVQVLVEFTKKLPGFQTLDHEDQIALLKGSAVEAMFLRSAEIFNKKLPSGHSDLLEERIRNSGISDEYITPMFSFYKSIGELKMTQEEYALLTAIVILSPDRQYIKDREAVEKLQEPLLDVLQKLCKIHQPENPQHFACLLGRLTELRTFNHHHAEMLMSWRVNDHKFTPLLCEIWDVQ
Determination of a ligand mediated Gal4 promoter driven transactivation to quantify ligand binding mediated activation of FXR. FXR Reporter Assay kit purchased from Indigo Bioscience (Catalogue number: IB00601) to determine the potency and efficacy of compound developed by Enanta that can induce FXR activation. The principle application of this reporter assay system is to quantify functional activity of human FXR. The assay utilizes non-human mammalian cells, CHO (Chinese hamster ovary) cells engineered to express human NR1H4 protein (referred to as FXR). Reporter cells also incorporate the cDNA encoding beetle luciferase which catalyzes the substrates and yields photon emission. Luminescence intensity of the reaction is quantified using a plate-reading luminometer, Envision. Reporter Cells include the luciferase reporter gene functionally linked to an FXR responsive promoter. Thus, quantifying changes in luciferase expression in the treated reporter cells provides a sensitive surrogate measure of the changes in FXR activity. […] The assay is according to the manufacturer's instructions. In brief, the assay was performed in white, 96 well plates using final volume of 100 μl containing cells with different doses of compounds. Retrieve Reporter Cells from −80° C. storage. Perform a rapid thaw of the frozen cells by transferring a 10 ml volume of 37° C. cell recovery medium into the tube of frozen cells. Recap the tube of Reporter Cells and immediately place it in a 37° C. water bath for 5-10 minutes. Retrieve the tube of Reporter Cell Suspension from the water bath. Sanitize the outside surface of the tube with a 70% alcohol swab, and then transfer it into the cell culture hood. Dispense 90 μl of cell suspension into each well of the 96-well Assay Plate. Transfer the plate into 37° C. incubator, allowing the cells adherent to the bottom of the well. Dilute compounds in Dilution Plate (DP), and administrate to cells at Assay Plate (AP). DMSO content of the samples was kept at 0.2%. Cells were incubated for additional 22 hours before luciferase activities were measured. Thirty minutes before intending to quantify FXR activity, remove Detection Substrate and Detection Buffer from the refrigerator and place them in a low-light area so that they may equilibrate to room temperature. Remove the plate's lid and discard all media contents by ejecting it into an appropriate waste container. Gently tap the inverted plate onto a clean absorbent paper towel to remove residual droplets. Cells will remain tightly adhered to well bottoms. Add 100 μl of luciferase detection reagent to each well of the assay plate. Allow the assay plate to rest at room temperature for at least 5 minutes following the addition of LDR. Set the instrument (Envision) to perform a single 5 second “plate shake” prior to reading the first assay well. Read time may be 0.5 second (500 mSec) per well.
On the technique in general: A reporter such as luciferase makes a cellular process visible.
In turn, `O=C(NS(=O)(=O)C1CC1)c1ccc(N2C3CC[C@H]2CC(OCc2c(-c4c(Cl)cccc4Cl)noc2C2CC2)C3)c(F)c1` (some centres unmarked) [Example 6] showed an EC50 of less than 100 nM.
Same read-out and setting: for `O=C(NS(=O)(=O)C1CC1)c1ccc2nc(N3C4CC[C@H]3CC(OCc3c(-c5c(Cl)cccc5Cl)noc3C3CC3)C4)sc2c1` (some centres unmarked) [Example 2] the value was less than 100 nM.
On to `CN(C)S(=O)(=O)NC(=O)c1ccc(N2C3CC[C@H]2CC(OCc2c(-c4c(Cl)cccc4Cl)noc2C2CC2)C3)c(F)c1` (some centres unmarked) [Example 4], for which the EC50 was less than 100 nM.
On the same count and under the same terms, for `CC(C)(C)c1ccc(S(=O)(=O)NC(=O)c2ccc3nc(N4C5CC[C@H]4CC(OCc4c(-c6c(Cl)cccc6Cl)noc4C4CC4)C5)sc3c2)cc1` (some centres unmarked) [Example 3] the value was less than 100 nM.
On the same count and under the same terms, for `CC(C)(C)c1ccc(S(=O)(=O)NC(=O)c2ccc(N3C4CC[C@H]3CC(OCc3c(-c5c(Cl)cccc5Cl)noc3C3CC3)C4)c(F)c2)cc1` (some centres unmarked) [Example 5] the value was less than 100 nM.

The same test, now with this note: CHO reporter cells expressing human NR1H4; normalized to CDCA set as 100%.
Turning to `O=C(NS(=O)(=O)C1CC1)c1ccc(N2C3CC[C@H]2CC(OCc2c(-c4c(Cl)cccc4Cl)noc2C2CC2)C3)c(F)c1` (some centres unmarked) [Example 6], the “Efficacy (%)” value turned out to be 170%.
The same measure, in the same setting: for `O=C(NS(=O)(=O)C1CC1)c1ccc2nc(N3C4CC[C@H]3CC(OCc3c(-c5c(Cl)cccc5Cl)noc3C3CC3)C4)sc2c1` (some centres unmarked) [Example 2] the value was 204%.
The same measure, in the same setting: as for `CN(C)S(=O)(=O)NC(=O)c1ccc2nc(N3C4CC[C@H]3C[C@H](OCc3c(-c5c(Cl)cccc5Cl)noc3C3CC3)C4)sc2c1` [Example 1], the figure is 204%; as for `CN(C)S(=O)(=O)NC(=O)c1ccc(N2C3CC[C@H]2CC(OCc2c(-c4c(Cl)cccc4Cl)noc2C2CC2)C3)c(F)c1` (some centres unmarked) [Example 4], 174%.
Still for that read-out and setting: as for `CC(C)(C)c1ccc(S(=O)(=O)NC(=O)c2ccc3nc(N4C5CC[C@H]4CC(OCc4c(-c6c(Cl)cccc6Cl)noc4C4CC4)C5)sc3c2)cc1` (some centres unmarked) [Example 3], the figure is 226%.
For `CC(C)(C)c1ccc(S(=O)(=O)NC(=O)c2ccc(N3C4CC[C@H]3CC(OCc3c(-c5c(Cl)cccc5Cl)noc3C3CC3)C4)c(F)c2)cc1` (some centres unmarked) [Example 5], the “Efficacy (%)” value is reported as 168%.
